This note sets out measurements from ChEMBL document CHEMBL5233288, “Ginkgo Biflavones Cause p53 Wild-Type Dependent Cell Death in a Transcription-Independent Manner of p53” (J Nat Prod, 2023).

The nature of data set [1]: Toxicity against BALB/c nude mouse xenografted with human HCT-116 cells assessed as body weight loss at 30 mg/kg, ip administered once every 3 days for 12 days and measured every 2 days. The class given is organism-based. To be noted: in vivo, 288 h, time 12 day. For orientation: Xenograft models place foreign cells or tissue in a host animal.
In the next data set the test system is HCT-116. As to the kind of experiment: Antitumor activity against human HCT-116 cells xenografted in BALB/c nude mouse assessed as reduction in tumor volume at 30 mg/kg, ip administered once every 3 days for 12 days and measured every 2 days. To be noted: time 12.0 day. The data set is classed as functional, organism-based.

Activity calls are given as the source filed them. No cut-off for these calls is given here.

On to `O=c1[nH]cc(F)c(=O)[nH]1` [FLUOROURACIL], for which the Activity entry in data set [1] was “Toxic”. In the data set on HCT-116, the outcome was Active.
